# Experimental data published in ChEMBL document CHEMBL1150103, “Curacins B and C, New Antimitotic Natural Products from the Marine Cyanobacterium Lyngbya majuscula” (J Nat Prod, 1995).
# pIC50: −log10 of the molar value.
# Experiments:
# L1210 = experiment: Cytotoxicity against mouse L1210 cells; type: functional, cell-based
# CA46 = experiment: Cytotoxicity against human CA46 cells; type: functional, cell-based
# [1] = Toxicity in brine shrimp; type: organism-based; conditions: artemia, in vivo; read-out: LD50 (the source's name)
# [2] = Inhibition of tubulin polymerization
# [3] = Displacement of [3H]colchicine from tubulin; conditions: concentration not given here
Compound,Activity (L1210),Activity (CA46),LC50 [1] [µM],pIC50 [2],inhibition [3] [%]
C=CC[C@@H](CC/C(C)=C/C=C\CC/C=C\[C@@H]1CSC([C@@H]2C[C@@H]2C)=N1)OC [CURACIN B],Toxic,Toxic,0.038,,
C=CC[C@@H](CC/C(C)=C\C=C\CC/C=C\[C@@H]1CSC([C@@H]2C[C@@H]2C)=N1)OC [CURACIN C],Toxic,Toxic,0.054,,
C=CC[C@@H](CC/C(C)=C/C=C/CC/C=C\[C@@H]1CSC([C@@H]2C[C@@H]2C)=N1)OC [CURACIN A],,,0.008,5.85,96
